The text below walks through data of patent US20240174703A1, “THREE-COORDINATE AU(I) PROBES AND USE IN SELECTIVELY DISRUPTING MITOCHONDRIA IN CANCER CELLS” (University of Kentucky Research Foundation, priority 2021, published 2024).

The subject of data set [1] is MDA-MB-231. The experiment in a line: Cell viability (MTT assay) in TNBC cell line MDA-MB-231. Type of data set: cell-based. As to conditions: MDA-MB-231, MTT assay, 72 hours, mean ± s.e.m., n = 3. The method, then:
Cell Culture. All cell lines were purchased from ATCC and routinely grown in a humidified incubator at 37° C. with 5-10% CO2. MDA-MB-468, MDA-MB-231, MDA-MB-175, MRCS, RPE-NEO, HCT116, and K562N were grown in DMEM supplemented with 10% FBS, 1% amphotericin and 1% penicillin/streptomycin. A2780 cells were grown in RPMI supplemented with 10% FBS, 1% amphotericin, and 1% penicillin/streptomycin, and 4 mM glutamine. All supplements along with PBS and trypsin-EDTA were purchased from Corning Inc. and used as is.
Cell Viability of AuTri-1-10 (Adherent Cell Lines). The cell viability of all 10 complexes were performed in MDA-MB-231. Additionally, AuTri-9 was evaluated in the following: MDA-MB-175, MA-MB-468, A2780, HCT116, OVCAR8 and MRCS. Cells were grown to confluency and trypsin was added to detach and harvest cells. The cells were washed with 2 mL of PBS and suspended in 10 mL of the appropriate media. The cells were centrifuged at 2000 rpm for 5 minutes and the pellet washed with 2 mL of PBS then suspended in 5 mL of the appropriate media. The cells were plated at a density of 2,000 cells/well in a 96-well clear bottom plate and allowed to adhere overnight at 37° C. with 5-10% CO2. The compounds were prepared as a stock in DMSO and used fresh. The compounds were added at seven concentrations (<1% DMSO) with a 3× serial dilution starting at 50 μM for the highest concentration and incubated at 37° C. for 72 h with 5-10% CO2. 1% DMSO were added to control wells as the vehicle control. The medium was removed and a solution of MTT (100 μL, prepared by dissolving MTT at 5 mg/mL and diluting by 10x with DMEM) was added to each well and incubated for 4 h at 37° C. with 5-10% CO2. The dye was removed from each well and 100 μL of DMSO was added to induce cell lysis. The plates were read using a Genios plate reader (λ=570 nm).

The conditions of data set [2]: based on gold; cited from earlier work.
Data set [3] concerns MDA-MB-231. The experiment in a line: Transmission electron microscopy of mitochondrial morphology. As to conditions: AuTri-9 10 μM for 1 h. The class given is cell-based. The method, then: Transmission Electron Microscopy. MDA-MB-231 cells were seeded in 6 well plates and allowed to grow to 85% confluency. The cells were then treated with AuTri-9 at a concentration of 10 μM (<1% DMSO) for 1 h at 37° C. Growth media were removed and immediately and added 3% glutaraldehyde at 4° C. in 0.1 M Sorenson's or Cacodylate Buffer. After 5 minutes remove fix and replace with fresh fixative, leave for 45 min-1 hr at 4° C., washed in 0.1 M buffer w/5% sucrose 4×, 5 minutes each. Post fix, the cells were stained with 1% OsO4 in 0.1 M buffer for 1 hr at 4° C. and washed in 0.1 M buffer 1×. The cells were dehydrated in graded ethanols, 5 minutes each, from 50% through 100% and absolute ethanol (2×) at 4° C. After the last alcohol wash remove the residual alcohol with a small pipette and immediately add straight resin (14.5 g Eponate 12, 8.0 g DDSA, 7.15 g NMA, and 0.85 gm BDMA) to the dish. Swirl the dish and then remove as much of the resin, (which may contain residual alcohol), with a plastic pipette being careful not to disturb the cell layer. Then add straight resin 2× for 1-2 hours and place under the lamp, on a shaker. Pour off the 2nd straight resin wash, let the plate drain well (leaving a layer of resin on the bottom) and invert labeled beem capsules into each well that have had the conical ends removed. […]

A word on the IC50: it is the concentration needed to halve the response being measured. In the data set on MDA-MB-231 [1] (Homo sapiens), `c1cnc2c(c1)ccc1cccnc12` [1,10-phenantrholine] displayed an IC50 of 7.21 ± 1.68 µM.

The compound `Cc1ccnc2c1ccc1c(C)ccnc12` [4,7-dimethylphenanthroline] returned an IC50 in the data set on MDA-MB-231 [1] (Homo sapiens) of 14.1 ± 2.58 µM.

The compound `CC(=O)OC[C@H]1O[C@@H]([S-])[C@H](OC(C)=O)[C@@H](OC(C)=O)[C@@H]1OC(C)=O.CCP(CC)CC.[Au+]` [Auranofin] showed an IC50 in the data set on MDA-MB-231 [1] of 1.31 ± 0.15 µM. In addition, the “MTD (maximum tolerated dose)” value in data set [2] is on record as 12 mg/kg.

Compound `c1ccc(-c2ccnc3c2ccc2c(-c4ccccc4)ccnc23)cc1` [Bathophenanthroline] showed an IC50 in the data set on MDA-MB-231 [1] of 7.48 ± 1.64 µM.

`c1ccc(-c2ccccn2)nc1` [Bipyridine] yielded an IC50 in the data set with MDA-MB-231 [1] of 17.5 ± 0.354 µM.

Compound `N.N.[Cl][Pt][Cl]` [Cisplatin] returned an IC50 with MDA-MB-231 [1] of 34.6 ± 0.783 µM.

As for `OO` [H2O2, hydrogen peroxide], the “mitochondrial morphology by TEM” value in the data set on MDA-MB-231 [3] was “distinct cytoplasmic swelling and membrane rupture (white star) is observed; however, the mitochondria structure remains intact”.

In the data set on MDA-MB-231 [1], `[F][Sb-]([F])([F])([F])([F])[F].[Na+]` [NaSbF6] registered an IC50 of over 50 µM.

With `CN[C@@H]1C[C@H]2O[C@@](C)([C@@H]1OC)n1c3ccccc3c3c4c(c5c6ccccc6n2c5c31)C(=O)NC4` [staurosporine], the “mitochondrial morphology by TEM” value in the data set on MDA-MB-231 [3] is on record as “no distinct morphological changes to mitochondria”.
